Test results taken from paper PMC10771525 (Communications Biology, 2024).
Where no end group is shown, it is not given here.

How the values were obtained:
[1] = biological target: CHRM2 (Homo sapiens, UniProt P08172); conditions: reference agonist, CHRM2, CHO-K1, Arrestin
[2] = biological target: CHRM4 (Homo sapiens, UniProt P08173); assay: GPCR panel (control), Arrestin, CHO-K1; format: cell-based; conditions: reference agonist
[3] = biological target: CHRM5 (Homo sapiens, UniProt P08912); assay: GPCR panel (control), Arrestin, CHO-K1; format: cell-based; conditions: reference agonist
[4] = biological target: CNR1 (Homo sapiens, UniProt P21554); conditions: reference agonist, CNR1, CHO-K1, Arrestin
[5] = biological target: CNR2 (Homo sapiens, UniProt P34972); conditions: reference agonist, CNR2, CHO-K1, Arrestin
[6] = biological target: DRD4 (Homo sapiens, UniProt P21917); conditions: reference agonist, DRD4, CHO-K1, Arrestin
[7] = biological target: DRD2S (Homo sapiens, UniProt P14416); conditions: reference agonist, CHO-K1, Arrestin
[8] = biological target: DRD2L (Homo sapiens, UniProt P14416); conditions: reference agonist, CHO-K1, Arrestin
[9] = biological target: GPR120 (Homo sapiens, UniProt Q5NUL3); assay: GPCR panel (control), Arrestin, CHO-K1; format: cell-based; conditions: reference agonist
[10] = biological target: T1, OXTR (Homo sapiens, UniProt P30559); assay: GPCR panel (control), Arrestin, CHO-K1; format: cell-based; conditions: reference agonist
T1 construct: expressed in transfected cells; host or cells: CHO-K1

[11] = biological target: ADRA1B (Homo sapiens, UniProt P35368); assay: GPCR panel (control), Arrestin, CHO-K1; format: cell-based; conditions: reference agonist
[12] = biological target: PTGER2 (Homo sapiens, UniProt P43116); assay: GPCR panel (control), Arrestin, CHO-K1; format: cell-based; conditions: reference agonist
[13] = biological target: PTGER4 (Homo sapiens, UniProt P35408); assay: GPCR panel (control), Arrestin, HEK-293; format: cell-based; conditions: reference agonist, PTGER4, HEK-293, Arrestin
[14] = biological target: PTGER3 (Homo sapiens, UniProt P43115); assay: GPCR panel (control), Arrestin, CHO-K1; format: cell-based; conditions: reference agonist
[15] = biological target: T2, TACR3 (Homo sapiens, UniProt P29371); assay: GPCR panel (control), Arrestin, CHO-K1; format: cell-based; conditions: reference agonist
T2 construct: expressed in transfected cells; host or cells: CHO-K1

[16] = biological target: T3, UTR2 (Homo sapiens, UniProt Q9UKP6); assay: GPCR panel (control), Arrestin, CHO-K1; format: cell-based; conditions: reference agonist
T3 construct: expressed in transfected cells; host or cells: CHO-K1

[17] = biological target: T4, F2RL3 (Homo sapiens, UniProt Q96RI0); assay: GPCR panel (control), Arrestin, CHO-K1; format: cell-based; conditions: reference agonist
T4 construct: expressed in transfected cells; host or cells: CHO-K1

[18] = biological target: AGTR1 (Homo sapiens, UniProt P30556); conditions: reference agonist, AGTR1, CHO-K1, Arrestin
[19] = biological target: CALCR + RAMP3 (Homo sapiens, UniProt O60896+P30988); conditions: reference agonist, CALCR + RAMP3, CHO-K1, Arrestin
[20] = biological target: CALCR + RAMP2 (Homo sapiens, UniProt O60895+P30988); conditions: reference agonist, CALCR + RAMP2, CHO-K1, Arrestin
[21] = biological target: CALCR (Homo sapiens, UniProt P30988); conditions: reference agonist, U2OS, Arrestin
[22] = biological target: T5, MRGPRX2 (Homo sapiens, UniProt Q96LB1); assay: GPCR panel (control), Arrestin, CHO-K1; format: cell-based; conditions: reference agonist
T5 sequence (Q96LB1 1-330): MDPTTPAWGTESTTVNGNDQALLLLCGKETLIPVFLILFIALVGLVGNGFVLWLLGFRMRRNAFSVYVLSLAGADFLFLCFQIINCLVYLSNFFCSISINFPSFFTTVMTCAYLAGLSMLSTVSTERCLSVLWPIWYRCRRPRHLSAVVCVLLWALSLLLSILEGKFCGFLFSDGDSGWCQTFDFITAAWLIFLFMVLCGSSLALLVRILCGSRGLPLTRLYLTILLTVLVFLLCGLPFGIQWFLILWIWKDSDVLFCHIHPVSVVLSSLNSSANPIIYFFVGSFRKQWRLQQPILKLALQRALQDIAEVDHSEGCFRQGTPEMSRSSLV

[23] = biological target: EDNRA (Homo sapiens, UniProt P25101); conditions: reference agonist, CHO-K1, Arrestin
[24] = biological target: T6, EDNRB (Homo sapiens, UniProt P24530); assay: GPCR panel (control), Arrestin, CHO-K1; format: cell-based; conditions: reference agonist
T6 construct: expressed in transfected cells; host or cells: CHO-K1

[25] = biological target: GLP1R (Homo sapiens, UniProt P43220); conditions: reference agonist, CHO-K1, Arrestin
[26] = biological target: HSR1A (Homo sapiens, UniProt Q92847); conditions: reference agonist, U2OS, Arrestin
[27] = biological target: MC5R (Homo sapiens, UniProt P33032); conditions: reference agonist, CHO-K1, Arrestin
[28] = biological target: MC3R (Homo sapiens, UniProt P41968); conditions: reference agonist, CHO-K1, Arrestin
[29] = biological target: MC1R (Homo sapiens, UniProt Q01726); conditions: reference agonist, CHO-K1, Arrestin
[30] = biological target: T7, MLNR (Homo sapiens, UniProt O43193); assay: GPCR panel (control), Arrestin, CHO-K1; format: cell-based; conditions: reference agonist
T7 construct: expressed in transfected cells; host or cells: CHO-K1

[31] = biological target: T8, NMU1R (Homo sapiens, UniProt Q9HB89); assay: GPCR panel (control), Arrestin, U2OS; format: cell-based; conditions: reference agonist
T8 construct: expressed in transfected cells; host or cells: U2OS

[32] = biological target: T9, HCRTR1 (Homo sapiens, UniProt O43613); assay: GPCR panel (control), Arrestin, CHO-K1; format: cell-based; conditions: reference agonist
T9 construct: expressed in transfected cells; host or cells: CHO-K1

[33] = biological target: OPRL1 (Homo sapiens, UniProt P41146); conditions: reference agonist, OPRL1, CHO-K1, Arrestin
[34] = biological target: ADCYAP1R1 (Homo sapiens, UniProt P41586); conditions: reference agonist, ADCYAP1R1, CHO-K1, Arrestin
[35] = biological target: T10, PTHR1 (Homo sapiens, UniProt Q03431); assay: GPCR panel (control), Arrestin, CHO-K1; format: cell-based; conditions: reference agonist
T10 construct: expressed in transfected cells; host or cells: CHO-K1

[36] = biological target: T11, PPYR1 (NPY4) (Homo sapiens, UniProt P50391); assay: GPCR panel (control), Arrestin, CHO-K1; format: cell-based; conditions: reference agonist
T11 construct: expressed in transfected cells; host or cells: CHO-K1

[37] = biological target: T12, BDKRB2 (Homo sapiens, UniProt P30411); assay: GPCR panel (control), Arrestin, CHO-K1; format: cell-based; conditions: reference agonist
T12 construct: expressed in transfected cells; host or cells: CHO-K1

[38] = biological target: T13, RXFP3 (Homo sapiens, UniProt Q9NSD7); assay: GPCR panel (control), Arrestin, U2OS; format: cell-based; conditions: reference agonist
T13 construct: expressed in transfected cells; host or cells: U2OS

[39] = biological target: T14, F2RL1 (Homo sapiens, UniProt P55085); assay: GPCR panel (control), Arrestin, U2OS; format: cell-based; conditions: reference agonist
T14 construct: expressed in transfected cells; host or cells: U2OS

[40] = biological target: T15, CRHR2 (Homo sapiens, UniProt Q13324); assay: GPCR panel (control), Arrestin, CHO-K1; format: cell-based; conditions: reference agonist
T15 construct: expressed in transfected cells; host or cells: CHO-K1

[41] = biological target: T16, SCTR (Homo sapiens, UniProt P47872); assay: GPCR panel (control), Arrestin, CHO-K1; format: cell-based; conditions: reference agonist
T16 construct: expressed in transfected cells; host or cells: CHO-K1

[42] = biological target: SSTR2 (Homo sapiens, UniProt P30874); conditions: reference agonist, SSTR2, CHO-K1, Arrestin
[43] = biological target: SSTR5 (Homo sapiens, UniProt P35346); conditions: reference agonist, SSTR5, CHO-K1, Arrestin
[44] = biological target: T17, F2R (Homo sapiens, UniProt P25116); assay: GPCR panel (control), Arrestin, CHO-K1; format: cell-based; conditions: reference agonist
T17 construct: expressed in transfected cells; host or cells: CHO-K1

[45] = biological target: T18, PTHR2 (Homo sapiens, UniProt P49190); assay: GPCR panel (control), Arrestin, CHO-K1; format: cell-based; conditions: reference agonist
T18 construct: expressed in transfected cells; host or cells: CHO-K1

[46] = biological target: T19, FPRL1 (Homo sapiens, UniProt P25090); assay: GPCR panel (control), Arrestin, CHO-K1; format: cell-based; conditions: reference agonist
T19 construct: expressed in transfected cells; host or cells: CHO-K1

[47] = biological target: T20, FPR1 (Homo sapiens, UniProt P21462); assay: GPCR panel (control), Arrestin, CHO-K1; format: cell-based; conditions: reference agonist
T20 construct: expressed in transfected cells; host or cells: CHO-K1

[48] = biological target: OPRM1 (Homo sapiens, UniProt P35372); conditions: reference agonist, OPRM1, U2OS, Arrestin
[49] = test system: CCR9; assay: GPCR panel (control), Arrestin, CHO-K1; format: cell-based, human; conditions: reference agonist

HSR1A, sequence (Q92847 whole entry): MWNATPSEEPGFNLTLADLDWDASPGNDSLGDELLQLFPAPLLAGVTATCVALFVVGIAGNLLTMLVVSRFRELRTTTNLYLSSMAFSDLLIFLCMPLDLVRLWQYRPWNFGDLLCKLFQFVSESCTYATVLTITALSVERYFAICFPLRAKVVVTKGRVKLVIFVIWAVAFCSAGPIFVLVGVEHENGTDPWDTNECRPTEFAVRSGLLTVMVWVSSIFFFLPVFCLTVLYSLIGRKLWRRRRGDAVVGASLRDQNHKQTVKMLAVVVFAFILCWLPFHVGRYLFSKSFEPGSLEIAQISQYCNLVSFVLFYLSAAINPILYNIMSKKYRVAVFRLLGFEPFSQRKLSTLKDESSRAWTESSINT
T17 sequence (P25116 22-425): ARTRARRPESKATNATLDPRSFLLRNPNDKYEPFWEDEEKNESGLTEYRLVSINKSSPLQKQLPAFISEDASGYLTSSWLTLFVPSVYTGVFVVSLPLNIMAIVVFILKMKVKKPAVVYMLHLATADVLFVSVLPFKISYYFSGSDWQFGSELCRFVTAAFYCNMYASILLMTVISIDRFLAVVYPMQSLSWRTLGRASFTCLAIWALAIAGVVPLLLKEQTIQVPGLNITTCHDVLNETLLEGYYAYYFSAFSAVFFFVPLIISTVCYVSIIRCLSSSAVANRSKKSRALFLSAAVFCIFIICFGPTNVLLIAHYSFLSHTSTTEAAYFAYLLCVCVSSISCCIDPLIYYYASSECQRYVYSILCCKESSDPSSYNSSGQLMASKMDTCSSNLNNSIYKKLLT
ADCYAP1R1, sequence (P41586 21-468): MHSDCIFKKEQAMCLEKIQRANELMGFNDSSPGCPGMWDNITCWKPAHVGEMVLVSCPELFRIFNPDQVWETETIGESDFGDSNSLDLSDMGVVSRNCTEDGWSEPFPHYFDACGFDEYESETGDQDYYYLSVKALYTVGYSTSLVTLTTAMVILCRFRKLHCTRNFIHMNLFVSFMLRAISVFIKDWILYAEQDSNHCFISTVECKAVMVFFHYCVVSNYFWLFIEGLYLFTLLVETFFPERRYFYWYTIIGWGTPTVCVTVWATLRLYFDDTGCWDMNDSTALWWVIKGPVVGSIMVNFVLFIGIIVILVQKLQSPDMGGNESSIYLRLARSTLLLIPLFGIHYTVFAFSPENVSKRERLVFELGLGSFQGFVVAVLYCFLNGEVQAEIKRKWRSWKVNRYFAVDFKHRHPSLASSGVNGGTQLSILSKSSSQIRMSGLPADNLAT
T2 sequence (P29371 whole entry): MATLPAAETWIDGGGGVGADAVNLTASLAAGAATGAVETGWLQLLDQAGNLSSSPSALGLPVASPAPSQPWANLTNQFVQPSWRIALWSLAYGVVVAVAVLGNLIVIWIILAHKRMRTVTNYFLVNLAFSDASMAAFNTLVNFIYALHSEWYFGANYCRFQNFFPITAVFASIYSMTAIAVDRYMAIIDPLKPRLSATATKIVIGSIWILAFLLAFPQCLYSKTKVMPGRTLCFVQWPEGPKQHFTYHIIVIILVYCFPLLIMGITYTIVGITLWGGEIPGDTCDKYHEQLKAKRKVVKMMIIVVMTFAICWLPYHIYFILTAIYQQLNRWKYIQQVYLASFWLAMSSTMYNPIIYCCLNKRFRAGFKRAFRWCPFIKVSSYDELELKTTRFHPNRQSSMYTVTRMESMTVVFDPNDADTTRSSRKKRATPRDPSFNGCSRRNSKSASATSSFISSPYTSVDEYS
SSTR5, sequence (P35346 whole entry): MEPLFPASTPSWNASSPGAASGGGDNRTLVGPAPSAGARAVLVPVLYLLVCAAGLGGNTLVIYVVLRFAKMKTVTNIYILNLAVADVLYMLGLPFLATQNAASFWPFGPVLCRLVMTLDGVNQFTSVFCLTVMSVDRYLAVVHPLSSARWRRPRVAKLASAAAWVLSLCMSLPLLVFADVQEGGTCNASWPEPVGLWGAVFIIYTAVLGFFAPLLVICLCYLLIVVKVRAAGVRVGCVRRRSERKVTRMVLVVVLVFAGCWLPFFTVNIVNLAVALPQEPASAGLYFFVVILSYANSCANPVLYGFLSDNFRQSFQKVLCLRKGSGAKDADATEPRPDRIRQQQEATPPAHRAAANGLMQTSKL
MC1R, sequence (Q01726 whole entry): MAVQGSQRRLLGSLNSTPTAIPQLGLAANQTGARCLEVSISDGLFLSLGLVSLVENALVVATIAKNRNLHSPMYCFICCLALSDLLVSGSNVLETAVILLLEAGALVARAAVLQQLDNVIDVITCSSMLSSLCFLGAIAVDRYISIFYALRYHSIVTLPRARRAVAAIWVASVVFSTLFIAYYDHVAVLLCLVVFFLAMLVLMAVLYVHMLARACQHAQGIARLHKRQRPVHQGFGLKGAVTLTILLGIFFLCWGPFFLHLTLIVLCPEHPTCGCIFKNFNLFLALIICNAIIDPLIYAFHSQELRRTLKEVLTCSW
MC5R, sequence (P33032 whole entry): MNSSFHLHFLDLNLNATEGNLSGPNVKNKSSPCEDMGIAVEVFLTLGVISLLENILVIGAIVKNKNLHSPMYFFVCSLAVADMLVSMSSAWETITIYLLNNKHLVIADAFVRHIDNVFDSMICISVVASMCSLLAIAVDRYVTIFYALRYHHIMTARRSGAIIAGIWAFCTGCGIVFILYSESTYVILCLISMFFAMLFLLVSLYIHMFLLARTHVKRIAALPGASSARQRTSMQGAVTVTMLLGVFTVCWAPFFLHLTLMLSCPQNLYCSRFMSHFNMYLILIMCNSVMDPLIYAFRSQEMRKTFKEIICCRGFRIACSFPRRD
T14 sequence (P55085 26-397): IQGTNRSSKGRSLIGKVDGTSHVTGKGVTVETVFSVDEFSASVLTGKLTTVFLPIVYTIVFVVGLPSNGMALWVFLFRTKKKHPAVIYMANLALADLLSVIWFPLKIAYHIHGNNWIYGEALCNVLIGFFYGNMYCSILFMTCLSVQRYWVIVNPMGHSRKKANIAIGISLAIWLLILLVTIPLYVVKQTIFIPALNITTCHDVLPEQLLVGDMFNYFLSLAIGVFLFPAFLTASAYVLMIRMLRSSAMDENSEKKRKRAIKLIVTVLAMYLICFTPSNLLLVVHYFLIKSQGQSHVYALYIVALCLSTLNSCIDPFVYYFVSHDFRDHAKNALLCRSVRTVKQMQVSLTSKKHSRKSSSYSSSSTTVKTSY
PTGER4, sequence (P35408 whole entry): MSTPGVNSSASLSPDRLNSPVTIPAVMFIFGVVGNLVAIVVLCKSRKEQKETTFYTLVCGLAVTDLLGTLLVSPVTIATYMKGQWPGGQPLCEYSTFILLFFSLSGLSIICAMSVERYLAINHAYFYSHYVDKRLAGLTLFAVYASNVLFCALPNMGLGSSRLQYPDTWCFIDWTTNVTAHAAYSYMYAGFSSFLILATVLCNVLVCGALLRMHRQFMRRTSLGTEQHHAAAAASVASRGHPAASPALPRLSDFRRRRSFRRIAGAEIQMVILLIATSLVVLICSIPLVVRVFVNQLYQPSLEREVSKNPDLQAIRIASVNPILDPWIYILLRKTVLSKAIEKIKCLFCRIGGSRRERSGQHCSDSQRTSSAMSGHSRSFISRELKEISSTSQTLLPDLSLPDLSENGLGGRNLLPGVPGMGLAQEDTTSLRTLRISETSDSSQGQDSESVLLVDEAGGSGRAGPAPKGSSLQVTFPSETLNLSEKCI
T9 sequence (O43613 whole entry): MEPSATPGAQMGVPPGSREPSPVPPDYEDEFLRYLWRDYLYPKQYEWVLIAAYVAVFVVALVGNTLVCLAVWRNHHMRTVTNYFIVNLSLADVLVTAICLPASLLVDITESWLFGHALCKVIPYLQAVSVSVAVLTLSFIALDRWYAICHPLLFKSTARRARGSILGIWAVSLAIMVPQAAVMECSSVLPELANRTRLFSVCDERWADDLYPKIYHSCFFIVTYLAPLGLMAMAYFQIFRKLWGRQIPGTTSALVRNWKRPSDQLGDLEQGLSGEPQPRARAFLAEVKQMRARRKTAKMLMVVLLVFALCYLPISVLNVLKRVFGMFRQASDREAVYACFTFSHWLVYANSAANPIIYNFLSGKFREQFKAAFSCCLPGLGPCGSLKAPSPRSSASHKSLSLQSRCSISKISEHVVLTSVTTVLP
PTGER2, sequence (P43116 whole entry): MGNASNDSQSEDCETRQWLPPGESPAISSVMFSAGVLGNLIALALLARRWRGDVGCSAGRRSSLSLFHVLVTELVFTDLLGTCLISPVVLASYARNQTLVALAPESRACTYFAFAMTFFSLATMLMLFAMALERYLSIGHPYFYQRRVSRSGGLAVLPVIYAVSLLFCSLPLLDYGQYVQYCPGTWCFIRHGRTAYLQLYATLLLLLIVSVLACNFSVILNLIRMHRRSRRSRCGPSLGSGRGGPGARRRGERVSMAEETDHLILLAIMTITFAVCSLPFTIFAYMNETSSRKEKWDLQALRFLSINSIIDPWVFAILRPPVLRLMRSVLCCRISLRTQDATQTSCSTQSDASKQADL
T10 sequence (Q03431 27-593): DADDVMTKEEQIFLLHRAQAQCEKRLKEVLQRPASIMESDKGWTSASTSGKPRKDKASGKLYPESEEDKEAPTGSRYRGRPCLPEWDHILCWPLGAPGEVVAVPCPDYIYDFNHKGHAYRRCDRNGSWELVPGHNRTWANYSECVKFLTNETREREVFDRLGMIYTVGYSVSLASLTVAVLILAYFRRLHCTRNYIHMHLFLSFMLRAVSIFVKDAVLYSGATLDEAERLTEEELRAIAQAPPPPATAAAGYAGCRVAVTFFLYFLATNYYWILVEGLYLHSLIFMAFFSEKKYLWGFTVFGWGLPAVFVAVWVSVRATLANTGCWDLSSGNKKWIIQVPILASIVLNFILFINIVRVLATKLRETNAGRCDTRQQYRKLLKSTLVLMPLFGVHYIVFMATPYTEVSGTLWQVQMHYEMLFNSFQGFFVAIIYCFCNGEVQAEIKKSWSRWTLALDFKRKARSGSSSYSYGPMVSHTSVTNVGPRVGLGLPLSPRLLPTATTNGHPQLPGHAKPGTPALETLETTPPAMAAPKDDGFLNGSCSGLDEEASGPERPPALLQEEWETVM

CC(=O)OCC[N+](C)(C)C [Acetylcholine]
EC80 [1]: 230 µM
EC80 [2]: 200 µM
EC80 [3]: 150 µM

CCCCCCC(C)(C)c1ccc([C@@H]2C[C@H](O)CC[C@H]2CCCO)c(O)c1 [CP55940]
EC80 [4]: 0.17 µM
EC80 [5]: 0.14 µM

NCCc1ccc(O)c(O)c1 [Dopamine]
EC80 [6]: 21 µM
EC80 [7]: 5.4 µM
EC80 [8]: 18 µM

O=C(O)CCc1ccc(NCc2cccc(Oc3ccccc3)c2)cc1 [GW9508]
EC80 [9]: 570 µM

CC[C@H](C)[C@@H]1NC(=O)[C@H](Cc2ccc(O)cc2)NC(=O)[C@@H](N)CSSC[C@@H](C(=O)N2CCC[C@H]2C(=O)N[C@@H](CC(C)C)C(=O)NCC(N)=O)NC(=O)[C@H](CC(N)=O)NC(=O)[C@H](CCC(N)=O)NC1=O [Oxytocin]
EC80 [10]: 0.28 µM

CNC[C@H](O)c1cccc(O)c1 [Phenylephrine]
EC80 [11]: 10 µM

CCCCC[C@H](O)/C=C/[C@H]1[C@H](O)CC(=O)[C@@H]1C/C=C\CCCC(=O)O [Prostaglandin E2]
EC80 [12]: 42 µM
EC80 [13]: 0.14 µM
EC80 [14]: 0.98 µM

CSCC[C@H](NC(=O)[C@H](CC(C)C)NC(=O)CNC(=O)[C@H](Cc1ccccc1)NC(=O)[C@H](Cc1ccccc1)NC(=O)[C@H](CCC(N)=O)NC(=O)[C@H](CCC(N)=O)NC(=O)[C@@H]1CCCN1C(=O)[C@H](CCCCN)NC(=O)[C@@H]1CCCN1C(=O)[C@@H](N)CCCN=C(N)N)C(N)=O [Substance P]
EC80 [15]: 0.92 µM

CC(C)[C@H](NC(=O)[C@@H]1CSSC[C@H](NC(=O)[C@H](CC(=O)O)NC(=O)[C@@H]2CCCN2C(=O)[C@@H](NC(=O)[C@@H](N)CCC(=O)O)[C@@H](C)O)C(=O)N[C@@H](Cc2ccccc2)C(=O)N[C@@H](Cc2c[nH]c3ccccc23)C(=O)N[C@@H](CCCCN)C(=O)N[C@@H](Cc2ccc(O)cc2)C(=O)N1)C(=O)O [Urotensin II]
EC80 [16]: 0.031 µM

AYPGKF-NH2
EC80 [17]: 370 µM

Angiotensin II
EC80 [18]: 0.15 µM

Calcitonin
EC80 [19]: 8.9 µM
EC80 [20]: 0.44 µM
EC80 [21]: 1.6 µM

Cortistatin-14
EC80 [22]: 8.1 µM

Endothelin-1
EC80 [23]: 0.19 µM

Endothelin-3
EC80 [24]: 0.26 µM

Exendin-4
EC80 [25]: 0.24 µM

Ghrelin
EC80 [26]: 0.38 µM

Melanotan II
EC80 [27]: 0.34 µM
EC80 [28]: 0.037 µM
EC80 [29]: 0.03 µM

Motilin
EC80 [30]: 0.11 µM

Neuromedin U-25
EC80 [31]: 0.092 µM

Orexin A
EC80 [32]: 0.52 µM

Orphanin FQ
EC80 [33]: 0.15 µM

PACAP-27
EC80 [34]: 0.14 µM

PTH(1-34)
EC80 [35]: 0.28 µM

Pancreatic polypeptide
EC80 [36]: 0.062 µM

RPPGFSPFR [Bradykinin]
EC80 [37]: 0.035 µM

Relaxin-3
EC80 [38]: 3.1 µM

SLIGRL-NH2
EC80 [39]: 24 µM

Sauvagine
EC80 [40]: 0.46 µM

Secretin
EC80 [41]: 0.074 µM

Somatostatin 28
EC80 [42]: 0.093 µM
EC80 [43]: 1.3 µM

TFLLR-NH2
EC80 [44]: 1300 µM

TIP-39
EC80 [45]: 0.13 µM

WKYMVm-NH2
EC80 [46]: 0.067 µM
EC80 [47]: 0.62 µM

met-Enkephalin
EC80 [48]: 54 µM

B1: CCL25 (protein, UniProt O15444 24-150, looked up)
C-C motif chemokine 25: QGVFEDCCLAYHYPIGWAVLRRAWTYRIQEVSGSCNLPAAIFYLPKRHRKVCGNPKSREVQRAMKLLDARNKVFAKLHHNTQTFQAGPHAVKKLSSGNSKLSSSKFSNPISSSKRNVSLLISANSGL
EC80 [49]: 14 µM
